For orientation: pIC50 means the negative decadic logarithm of the IC50, by convention in mol/L.

Our source for the IC50 values is patent US12215093B2, “Bicyclic carboxamides and methods of use thereof” (Tempest Therapeutics, Inc., priority 2018, dated 2025).

pIC50: −log10 of the molar value.

Test [1] addresses T1, EP4 (Homo sapiens, UniProt P35408).
T1 construct: host or cells: stably transfected HEK293 cells co-expressing a promiscuous G protein and a clytin variant
Put plainly: Functional calcium flux assay, EP4. It is filed as cell-based. The following applies: stably transfected HEK293 cells; PGE2 10 nM; read-out: EP4 Ca2+-flux assay IC50. A general note: Calcium assays in cells follow changes in intracellular calcium, usually with a dye or a luminescent sensor.
Description: (§1) Each receptor subtype has an additional promiscuous G protein added in order to couple the aforementioned receptor to the calcium signaling pathway. The parental cell line used also expresses a novel variant of clytin, a calcium-activated photo-protein, to enable sensitive luminescent detection. Briefly, cells were plated at 50,000 cells-per-well in black, clear bottom 96-well plates. The plated cells were allowed to sit at room temperature for 30 min prior to transferring to a humidified, 37° C., 5% CO2 incubator for 18 to 24 h. Assay buffer (HBSS with 20 mM HEPES) and loading buffer (assay buffer plus 10 μM coelenterazine) were prepared on the day of the assay. Assays were performed by aspirating media from the assay plate and washing once with assay buffer, then replacing with loading buffer and allowing the cells to incubate for 1.5 h at room temperature. Compounds were prepared in assay buffer at a 3× final concentration in non-binding plates. Compounds were added to the cell plates and incubated for 30 min at room temperature. The prostanoid receptor ligand PGE2 was prepared at a 4× dilution ratio for a final concentration of 10 nM. Plates were run on a Flexstation™ using a 100 ms integration luminescence protocol for a total of 60 sec with ligand addition at 15 sec. Data were obtained from relative light units as measured by area under the curve.

Test [2] addresses EP2 (Homo sapiens, UniProt P43116).
Description: as §1

Sequence of EP2 (P43116 whole entry): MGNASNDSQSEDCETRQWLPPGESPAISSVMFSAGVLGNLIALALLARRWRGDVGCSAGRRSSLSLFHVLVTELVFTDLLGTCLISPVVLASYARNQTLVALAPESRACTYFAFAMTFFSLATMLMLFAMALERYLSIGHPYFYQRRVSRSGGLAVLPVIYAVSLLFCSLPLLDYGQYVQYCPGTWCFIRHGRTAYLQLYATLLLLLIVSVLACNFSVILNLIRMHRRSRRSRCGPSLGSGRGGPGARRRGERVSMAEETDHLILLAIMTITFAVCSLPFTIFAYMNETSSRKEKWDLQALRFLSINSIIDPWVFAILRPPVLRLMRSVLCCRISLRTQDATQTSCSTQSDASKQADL
T1 sequence (P35408 whole entry): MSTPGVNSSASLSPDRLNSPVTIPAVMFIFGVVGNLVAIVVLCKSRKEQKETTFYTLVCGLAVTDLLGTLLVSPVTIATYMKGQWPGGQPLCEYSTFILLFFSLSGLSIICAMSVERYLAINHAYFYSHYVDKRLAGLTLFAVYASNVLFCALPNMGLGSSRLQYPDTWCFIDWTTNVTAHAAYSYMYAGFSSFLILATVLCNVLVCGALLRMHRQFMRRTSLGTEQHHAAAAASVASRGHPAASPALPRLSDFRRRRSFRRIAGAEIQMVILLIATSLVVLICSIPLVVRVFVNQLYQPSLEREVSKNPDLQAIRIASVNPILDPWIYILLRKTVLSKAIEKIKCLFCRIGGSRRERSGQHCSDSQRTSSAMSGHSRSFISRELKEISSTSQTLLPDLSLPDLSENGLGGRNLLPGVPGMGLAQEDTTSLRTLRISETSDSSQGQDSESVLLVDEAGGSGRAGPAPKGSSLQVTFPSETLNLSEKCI

Regarding `COc1ccc2ccc(Cn3ccc4c(F)ccc(C(=O)NC5CC6(C5)CC(C(=O)O)C6)c43)cc2c1` (centres unmarked) [Example 40, (Sa)-6-(4-fluoro-1-((7-methoxynaphthalen-2-yl)methyl)-1H-indole-7-carboxamido)spiro[3.3]heptane-2-carboxylic acid], the pIC50 is above 9.00 in test [1] and above 7.60 in test [2].
In the same order, the values of `COc1ccc(-c2ccc(Cn3ccc4c(F)ccc(C(=O)NC5CC6(C5)CC(C(=O)O)C6)c43)cc2)cc1` (centres unmarked) [Example 51, (Sa)-6-(4-fluoro-1-((4’-methoxy-[1,1′-biphenyl]-4-yl)methyl)-1H-indole-7-carboxamido)spiro[3.3]heptane-2-carboxylic acid] are above 9.00 and above 7.60.
In the same order, the values of `O=C(O)CC1CC2(C1)CC(NC(=O)c1cc(Cl)cc3cnn(Cc4ccc(-c5ccccc5)c(F)c4)c13)C2` (centres unmarked) [Example 152, (Sa)-2-(6-(5-Chloro-1-((2-fluoro-[1,1′-biphenyl]-4-yl)methyl)-1H-indazole-7-carboxamido)spiro[3.3]heptan-2-yl)acetic acid] are above 9.00 and 7.31.
`COc1cc(C#N)cc(-c2ccc(C(C)n3ncc4c(Cl)ccc(C(=O)NC5CC6(C5)CC(C(=O)O)C6)c43)cc2)c1` (racemic) [Example 123, (Sa)-6-(4-chloro-1-((racemic)-1-(3′-cyano-5′-methoxy-[1,1′-biphenyl]-4-yl)-ethyl)-1H-indazole-7-carboxamido)spiro[3.3]heptane-2-carboxylic acid]: the pIC50 was 7.92 in test [1] and 7.22 in test [2].
As to `CCOc1cc(-c2ccc(Cn3ncc4c(Cl)ccc(C(=O)NC5CC6(C5)CC(C(=O)O)C6)c43)cc2)ccn1` (centres unmarked) [Example 79, (Sa)-6-(4-chloro-1-(4-(2-ethoxypyridin-4-yl)benzyl)-1H-indazole-7-carboxamido)spiro[3.3]heptane-2-carboxylic acid], the pIC50 in test [1] was above 9.00; in test [2], above 7.60.
Consider `COc1cc(C#N)cc(-c2ccc(C(C)n3ncc4cccc(C(=O)NC5CC6(C5)CC(C(=O)O)C6)c43)cc2)c1` (single isomer, unassigned) [Example 126, (Sa)-6-(1-((R) or (S)-1-(3′-cyano-5′-methoxy-[1,1′-biphenyl]-4-yl)-ethyl)-1H-indazole-7-carboxamido)spiro[3.3]heptane-2-carboxylic acid], for which the negative-log IC50 (pIC50) in test [1] is above 9.00; in test [2], above 7.60.
In the same order, the values of `O=C(O)CC1CC2(C1)CC(NC(=O)c1cc(Cl)c(F)c3cnn(Cc4ccc(-c5ccccc5)cc4)c13)C2` (centres unmarked) [Example 170, (Ra)-2-(6-(1-([1,1′-Biphenyl]-4-ylmethyl)-5-chloro-4-fluoro-1H-indazole-7-carboxamido)spiro[3.3]heptan-2-yl)acetic acid] are 8.29 and above 7.60.
Consider `CCOc1cc(-c2ccc(C(C)n3ccc4c(F)ccc(C(=O)NC5CC6(C5)CC(C(=O)O)C6)c43)cc2)ccn1` (single isomer, unassigned) [Example 129, (Sa)-6-(1-((R) or (S)-1-(4-(2-ethoxypyridin-4-yl)phenyl)-ethyl)-4-fluoro-1H-indole-7-carboxamido)spiro[3.3]heptane-2-carboxylic acid], for which the figures for the negative-log IC50 (pIC50) in test [1] and in test [2] were 8.52 and 7.21, respectively.
In the same order, the values of `CCOc1nccc(-c2ccc(Cn3ccc4c(F)ccc(C(=O)NC5CC6(C5)CC(C(=O)O)C6)c43)cc2)n1` (centres unmarked) [Example 58, (Sa)-6-(1-(4-(2-ethoxypyrimidin-4-yl)benzyl)-4-fluoro-1H-indole-7-carboxamido)spiro[3.3]heptane-2-carboxylic acid] are 8.62 and 7.02.
As to `O=C(NC1CC2(C1)CC(C(=O)O)C2)c1cc(Cl)cc2cnn(Cc3ccc(-c4ccccc4)c(F)c3)c12` (centres unmarked) [Example 153, (Sa)-6-(5-Chloro-1-((2fluoro-[1,1′-biphenyl]-4-yl)methyl)-1H-indazole-7-carboxamido)spiro[3.3]heptane-2-carboxylic acid], the negative-log IC50 (pIC50) is above 9.00 in test [1] and 7.02 in test [2].
As for `COc1cc(C#N)cc(-c2ccc(Cn3ccc4c(F)ccc(C(=O)NC5CC6(C5)CC(C(=O)O)C6)c43)cc2)n1` (centres unmarked) [Example 59, (Sa)-6-(1-(4-(4-cyano-6-methoxypyridin-2-yl)benzyl)-4-fluoro-1H-indole-7-carboxamido)spiro[3.3]heptane-2-carboxylic acid], the pIC50 in test [1] is 8.60; in test [2] it was 7.29.
In the same order, the values of `CC(c1ccc(-c2ccccc2)cc1)n1ncc2cc(Cl)cc(C(=O)NC3CC4(C3)CC(C(=O)O)C4)c21` (racemic) [Example 173, (Sa)-6-(1-((racemic)1-([1,1′-Biphenyl]-4-yl)ethyl)-5-chloro-1H-indazole-7-carboxamido)spiro[3.3]heptane-2-carboxylic acid] are 8.14 and above 7.60.
Take `O=C(NC1CC2(C1)CC(C(=O)O)C2)c1ccc(F)c2ccn(Cc3ccc(-c4cccc(OC(F)F)c4)cc3)c12` (centres unmarked) [Example 50, (Sa)-6-(1-((3’-(difluoromethoxy)-[1,1′-biphenyl]-4-yl)methyl)-4-f1uoro-1H-indole-7-carboxamido)spiro[3.3]heptane-2-carboxylic acid]: the negative-log IC50 (pIC50) in test [1] was above 9.00; in test [2], 7.17.
In the same order, the values of `O=C(NC1CC2(C1)CC(C(=O)O)C2)c1ccc(Cl)c2cnn(Cc3ccc(N4CC5CC5(C(F)F)C4)c(F)c3)c12` (racemic) [Example 76, (Sa)-6-(4-chloro-1-(4-((racemic)-1-(difluoromethyl)-3-azabicyclo[3.1.0]hexan-3-yl)-3-fluorobenzy1)-1H-indazole-7-carboxamido)spiro[3.3]heptane-2-carboxylic acid] are above 9.00 and 7.25.
`CNC(=O)c1cccc(-c2ccc(Cn3ncc4c(Cl)ccc(C(=O)NC5CC6(C5)CC(C(=O)O)C6)c43)cc2)n1` (centres unmarked) [Example 85, (Sa)-6-(4-chloro-1-(4-(6-(methylcarbamoyl)pyridin-2-yl)benzyl)-1H-indazole-7-carboxamido)spiro[3.3]heptane-2-carboxylic acid]: the results for the pIC50 in test [1] and in test [2] were above 9.00 and 7.52, respectively.
In the same order, the values of `O=C(NC1CC2(C1)CC(C(=O)O)C2)c1ccc(Cl)c2cnn(Cc3ccc(-n4cccn4)cc3)c12` (centres unmarked) [Example 73, (Sa)-6-(1-(4-(1H-pyrazol-1-yl)benzyl)-4-chloro-1H-indazole-7-carboxamido)spiro[3.3]heptane-2-carboxylic acid] are 8.89 and 7.15.
In the same order, the values of `COc1ccc(-c2ccc(C(C)n3ccc4c(F)ccc(C(=O)NC5CC6(C5)CC(C(=O)O)C6)c43)cc2)cn1` (racemic) [Example 119, (Sa)-6-(4-fluoro-1-((racemic)-1-(4-(6-methoxypyridin-3-yl)phenyl)-ethyl)-1H-indole-7-carboxamido)spiro[3.3]heptane-2-carboxylic acid] are 8.42 and 7.23.
In the same order, the values of `N#Cc1cccc(-c2ccc(Cn3ncc4c(Cl)ccc(C(=O)NC5CC6(CC(CC(=O)O)C6)C5)c43)cc2)c1` (centres unmarked) [Example 144, (Ra)-2-(6-(4-Chloro-1-((3′-cyano-[1,1-biphenyl]-4-yl)methyl)-1H-indazole-7-carboxamido)spiro[3.3]heptan-2-yl)acetic acid] are above 9.00 and above 7.60.
Consider `COc1cc(C#N)cc(-c2ccc(Cn3ccc4c(F)ccc(C(=O)NC5CC6(C5)CC(C(=O)O)C6)c43)cc2)c1` (centres unmarked) [Example 49, (Sa)-6-(1-((3’-cyano-5’-methoxy-[1,1′-biphenyl]-4-yl)methyl)-4-fluoro-1H-indole-7-carboxamido)spiro[3.3]heptane-2-carboxylic acid], for which the pIC50 in test [1] is above 9.00; in test [2] it was above 7.60.
In the same order, the values of `O=C(NC1CC2(C1)CC(C(=O)O)C2)c1ccc(Cl)c2cnn(Cc3ccc(-c4cccc(OC(F)(F)F)n4)cc3)c12` (centres unmarked) [Example 86] are 8.74 and 7.44.
In the same order, the values of `O=C(NC1CC2(C1)CC(C(=O)O)C2)c1ccc(Cl)c2cnn(Cc3ccc4ccccc4c3)c12` (centres unmarked) [Example 96, (Sa)-6-(4-chloro-1-(naphthalen-2-ylmethyl)-1H-indazole-7-carboxamido)spiro[3.3]heptane-2-carboxylic acid] are above 9.00 and above 7.60.
Consider `COc1cc(C(=O)NC2CC3(C2)CC(C(=O)O)C3)c2c(cnn2Cc2ccc(-c3ccccc3)cc2)c1` (centres unmarked) [Example 159, (Sa)-6-(1-([1,1′-Biphenyl]-4-ylmethyl)-5-methoxy-1H-indazole-7-carboxamido)spiro[3.3]heptane-2-carboxylic acid], for which the values for the pIC50 in test [1] and in test [2] were above 9.00 and 7.19, respectively.
In the same order, the values of `COc1cccc(-c2ccc(C(C)n3ncc4c(Cl)ccc(C(=O)NC5CC6(C5)CC(C(=O)O)C6)c43)cc2)c1` (racemic) [Example 122, (Sa)-6-(4-chloro-1-((racemic)-1-(3′-methoxy-[1,1′-biphenyl]-4-yl)-ethyl)-1H-indazole-7-carboxamido)spiro[3.3]heptane-2-carboxylic acid] are 8.33 and above 7.60.
In the same order, the values of `CCOc1cc(-c2ccc(Cn3ccc4c(Cl)ccc(C(=O)NC5CC6(C5)CC(C(=O)O)C6)c43)cc2)ccn1` (centres unmarked) [Example 70, (Sa)-6-(4-chloro-1-(4-(2-ethoxypyridin-4-yl)benzyl)-1H-indole-7-carboxamido)spiro[3.3]heptane-2-carboxylic acid] are above 9.00 and above 7.60.
In the same order, the values of `CNC(=O)c1cccc(-c2ccc(Cn3ccc4c(F)ccc(C(=O)NC5CC6(C5)CC(C(=O)O)C6)c43)cc2)n1` (centres unmarked) [Example 62, (Sa)-6-(4-fluoro-1-(4-(6-(methylcarbamoyl)pyridin-2-yl)benzyl)-1H-indole-7-carboxamido)spiro[3.3]heptane-2-carboxylic acid] are above 9.00 and 7.27.
